# Key:
# Test in all cases: relative viability (nuclei count vs DMSO), 5 days (fraction); higher = more cells survive
# [1] = compound: CC1=C(C(=NN1)C)CC2=C(C3=C(S2)N(C(=O)N(C3=O)C)CC(C)C)C(=O)N4C[C@@H](CO4)O + C[C@]1(O)C[C@@H](c2nc(-c3ccc4ccc(-c5ccccc5)nc4c3)c3c(N)nccn32)C1 [Linsitinib] (partner 1 µM)
# Summary of the method: (§1)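 Each reported value is a median over duplicate plates. It expresses relative viability: treated-well nuclei count divided by vehicle-well nuclei count. Lung cancer cell lines in 1536-well plates were dosed by pin tool a day after seeding, alone with one drug or with a fixed anchor-drug dose plus five library-drug doses (not always all listed) in √10 steps, and nuclei were counted after 5 days.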
# [2] = compound: CC1=C(C(=NN1)C)CC2=C(C3=C(S2)N(C(=O)N(C3=O)C)CC(C)C)C(=O)N4C[C@@H](CO4)O + C[C@@H](Oc1cc(-c2cnn(C3CCNCC3)c2)cnc1N)c1c(Cl)ccc(F)c1Cl [Crizotinib] (partner 1 µM)
# Summary of the method: as §1
# IDH-C35 + Pictilisib = compound: Cc1ccccc1C(C(=O)NC1CCCCC1)N(C(=O)Cn1ccnc1C)c1cccc(F)c1 [IDH-C35] + CS(=O)(=O)N1CCN(Cc2cc3nc(-c4cccc5[nH]ncc45)nc(N4CCOCC4)c3s2)CC1 [Pictilisib] (partner 1 µM)
# Summary of the method: as §1
# [3] = compound: CC1=C(C(=NN1)C)CC2=C(C3=C(S2)N(C(=O)N(C3=O)C)CC(C)C)C(=O)N4C[C@@H](CO4)O + COc1cc2c(Oc3ccc(NC(=O)C4(C(=O)Nc5ccc(F)cc5)CC4)cc3F)ccnc2cc1OCCCN1CCOCC1 [Foretinib] (partner 0.25 µM)
# Summary of the method: as §1
Cell Line,relative viability ([1]; first compound 0.0025 µM),relative viability ([1]; first compound 0.007906 µM),relative viability ([1]; first compound 0.025 µM),relative viability ([1]; first compound 0.07906 µM),relative viability ([1]; first compound 0.25 µM),relative viability ([2]; first compound 0.0025 µM),relative viability ([2]; first compound 0.007906 µM),relative viability ([2]; first compound 0.025 µM),relative viability ([2]; first compound 0.07906 µM),relative viability ([2]; first compound 0.25 µM),relative viability (IDH-C35 + Pictilisib; first compound 0.08 µM),relative viability (IDH-C35 + Pictilisib; first compound 0.253 µM),relative viability (IDH-C35 + Pictilisib; first compound 0.8 µM),relative viability (IDH-C35 + Pictilisib; first compound 2.53 µM),relative viability (IDH-C35 + Pictilisib; first compound 8 µM),relative viability ([3]; first compound 0.0025 µM),relative viability ([3]; first compound 0.007906 µM),relative viability ([3]; first compound 0.025 µM),relative viability ([3]; first compound 0.07906 µM),relative viability ([3]; first compound 0.25 µM)
NCI-H838,1.02,1.08,0.987,1.02,1.04,0.869,1.02,0.747,0.809,0.885,0.414,0.506,0.453,0.508,0.423,1.06,1.04,0.983,0.974,0.99
HARA,1.08,1.01,0.919,0.924,1.01,1.09,1.19,0.915,0.987,1.04,0.369,0.455,0.483,0.415,0.328,1,1.01,0.84,0.656,0.984
NCI-H2087,0.962,1.08,1.02,1.02,0.928,0.822,0.804,0.927,0.923,0.937,1.15,0.901,0.83,0.984,0.886,1.05,1.05,1.03,0.811,1.07
NCI-H1437,1.03,1.21,1.01,1.1,1.08,0.967,0.928,0.875,0.949,1.09,0.416,0.494,0.476,0.439,0.368,1.26,1.29,1.18,1.3,1.24
NCI-H650,1.03,0.973,0.63,0.858,0.791,0.949,0.75,0.631,0.77,0.773,0.926,0.863,0.847,,0.851,1.07,0.937,0.938,0.977,1.08
COR-L23,0.975,0.859,0.601,0.788,0.713,0.679,0.56,0.445,0.403,0.386,0.85,0.769,0.833,0.79,0.833,0.947,1.07,0.8,0.87,0.846
COR-L 105,1.1,0.943,0.853,0.961,0.95,0.969,0.738,0.668,0.748,0.771,0.442,0.477,0.354,0.383,0.392,1.1,0.899,0.974,1.03,1.06
LK-2,0.695,0.674,0.495,0.566,0.815,0.234,0.206,0.218,0.276,0.204,0.584,0.501,0.456,0.496,0.565,1.04,1.12,0.981,0.928,1.16
201T,1.06,0.988,1.03,1.1,1.06,1.06,0.978,1.03,1.06,1.05,0.651,0.731,0.634,0.661,0.676,1.18,1.16,1.02,1.11,1.2
NCI-H596,1.02,1.14,1.08,1.13,1.13,1.02,1.06,0.954,1.04,1.16,0.434,0.442,0.435,0.537,0.384,1.08,1.12,0.691,0.702,0.99
H3255,1.06,0.881,0.909,1.01,1.11,0.924,0.902,0.817,0.816,0.926,0.454,0.546,0.474,0.503,0.424,1.03,0.968,0.784,0.802,0.775
NCI-H647,1.33,1.37,1.33,1.24,1.44,1.26,1.32,1.02,1.05,1.38,0.445,0.411,0.339,,0.417,1.23,1.27,1.13,1.19,1.2
NCI-H2023,0.648,0.786,0.696,0.777,0.683,0.76,0.731,0.705,0.691,0.659,0.285,0.22,0.245,0.229,0.233,0.871,0.809,0.959,0.898,1.03
NCI-H23,0.521,0.548,0.516,0.565,0.777,0.519,0.613,0.499,0.568,0.604,0.473,0.494,0.526,0.397,0.456,1.05,0.992,0.965,1.07,1.16
NCI-H1944,1.13,1.1,1.27,1.15,1.07,1.15,1.25,1.15,1.06,1.08,0.38,0.364,0.323,0.343,0.346,0.985,1.02,0.898,1.02,0.889
NCI-H520,0.87,0.902,0.528,0.409,0.552,0.717,0.671,0.307,0.291,0.36,0.211,0.283,0.283,0.238,0.317,0.894,0.73,0.701,0.564,0.692

Cell Line,relative viability ([1]; first compound 0.0025 µM),relative viability ([1]; first compound 0.007906 µM),relative viability ([1]; first compound 0.025 µM),relative viability ([1]; first compound 0.07906 µM),relative viability ([1]; first compound 0.25 µM),relative viability ([2]; first compound 0.0025 µM),relative viability ([2]; first compound 0.007906 µM),relative viability ([2]; first compound 0.025 µM),relative viability ([2]; first compound 0.07906 µM),relative viability ([2]; first compound 0.25 µM),relative viability (IDH-C35 + Pictilisib; first compound 0.08 µM),relative viability (IDH-C35 + Pictilisib; first compound 0.253 µM),relative viability (IDH-C35 + Pictilisib; first compound 0.8 µM),relative viability (IDH-C35 + Pictilisib; first compound 2.53 µM),relative viability (IDH-C35 + Pictilisib; first compound 8 µM),relative viability ([3]; first compound 0.0025 µM),relative viability ([3]; first compound 0.007906 µM),relative viability ([3]; first compound 0.025 µM),relative viability ([3]; first compound 0.07906 µM),relative viability ([3]; first compound 0.25 µM)
A549,0.591,0.624,0.574,0.72,0.649,0.763,0.805,0.663,0.858,1.07,0.532,0.504,0.595,0.472,0.401,1.03,1.02,0.906,1,1.1
NCI-H460,0.736,0.577,0.789,1.09,1.19,0.865,1.1,0.848,1.12,0.948,0.43,0.438,0.325,0.326,0.297,1.01,1.09,0.949,1.01,1.11
EKVX,0.978,1.05,0.939,1.05,1.04,1.09,1.11,0.988,0.962,0.992,0.42,0.459,0.371,0.423,0.475,0.884,0.736,0.69,0.732,0.744
NCI-H358,0.707,0.794,0.801,0.892,0.998,0.639,0.543,0.566,0.66,0.7,0.408,0.33,0.317,0.366,0.385,0.636,0.76,0.664,0.766,0.791
EPLC-272H,1.24,1.13,1.32,0.986,1.27,0.821,0.863,0.904,0.773,1.1,0.369,0.338,0.283,,0.329,0.73,0.618,0.765,0.657,0.643
NCI-H1563,1.15,1.24,1.26,1.23,1.23,0.91,0.92,0.87,0.889,0.892,0.646,0.682,0.662,0.619,0.619,0.933,0.969,0.967,0.933,0.936
NCI-H2126,0.712,0.789,0.673,0.72,0.67,1.05,1.02,1.01,1,1.02,0.494,0.508,0.48,0.507,0.472,1.28,0.958,1.03,1.29,0.947
LXF-289,1.02,0.919,0.957,0.953,1.04,0.817,0.735,0.818,0.789,0.818,0.813,0.767,0.689,0.85,0.725,0.963,0.926,1.02,0.994,1.03
NCI-H2009,1.24,1.22,1.19,1.27,1.26,0.966,1.03,1.06,1.09,1.11,0.903,0.75,0.907,0.709,0.8,1.16,1.27,1.17,1.35,1.15
NCI-H2405,0.972,0.902,,0.881,0.73,0.91,0.805,0.727,0.748,0.805,0.487,0.363,0.377,,0.52,1.09,1.05,,0.978,1.01
NCI-H1755,1.05,1.03,0.975,0.957,0.976,0.876,0.952,0.941,0.877,0.967,0.451,0.411,0.448,0.452,0.412,0.97,0.996,0.873,0.911,0.897
HCC-78,0.483,0.548,0.587,0.505,0.377,0.444,0.316,0.342,0.371,0.322,0.211,0.243,0.199,0.243,0.219,0.579,0.572,0.601,0.527,0.563
LOU-NH91,0.958,0.843,1.06,1.12,1.02,0.735,0.733,0.797,0.741,0.732,0.528,0.548,0.516,0.496,0.531,0.931,0.877,0.988,1.02,0.972
IA-LM,0.686,0.509,0.552,0.525,0.94,0.924,0.743,0.838,0.885,1.03,0.381,0.382,0.33,0.325,0.322,1.25,1.01,1.2,1.25,1.14
NCI-H3122,1.04,1.08,0.99,0.976,0.947,0.281,0.26,0.276,0.259,0.299,0.628,0.572,0.592,0.611,0.598,0.936,0.982,0.988,0.99,0.983
HCC-827,1.01,1.01,0.96,0.949,0.963,0.96,0.965,0.924,0.929,1,0.966,0.921,1.02,1.13,1.17,1.02,1.09,1.01,1.02,1.02

# Reference: the supplement of paper PMC10307832
